The values below come from patent US4312605A, “Method for grouting joints and/or cracks in sewer conduits” (Hayward Baker Company, priority 1980, dated 1982).

The LD50 is the dose expected to kill half of the subjects tested.

The subject of data set [1] is albino rats. Nature of the data set: Acute toxicity (LD50) of grout monomers. The class given is in vivo. The note with it: from LD50 of MBA vs acrylamide.
Data set [2] in a line: Precipitation of crosslinker from aqueous monomer solution. The class given is physicochemical. The note with it: based on total metal acrylate salt; aqueous monomer solution 20-40% solids, especially if shaken.
Data set [3] has as its system albino rats. The note with it: cited from earlier work.
The conditions of data set [4]: cited from earlier work.
The conditions of data set [5]: 4 to 25% calcium acrylate based on dry soil weight, redox catalyst; U.S. Pat. No. 2,651,619; cited from earlier work.
Data set [6] in a line: Gel time of grout mixtures after mixing components A and B. The class given is physicochemical. The note with it: used instead of MgA in the monomer composition. The protocol: To 50 parts of each of the stock solutions a, b, c, d, and e, there is added 1.0 part of TEA (95% in water) and to another 50 parts of each of the stock solutions, there is added 2.0 parts of TEA (95% in water). The resulting ten solutions containing TEA, the latter five having twice as much TEA as the first five, are examples of component A that can be mixed with an approximately equal volume of initiator component B which in its simplest make-up consists of a solution in water of ammonium persulfate (AP).
The component B that is used with each of the first five of the TEA/monomer component A solutions is a solution of 2% AP in water, approximately 50 parts of the 2% AP solution being mixed, as at the discharge header of a packer, with 50 parts of the respective component A solution. These first five A and B mixtures when used in the field at about 20° (68° F.) have gel times of about 30 seconds. The component B made up for use with the last group of five TEA/monomer components A is a solution of 4% AP in water. When the latter AP solution is forced at approximately a rate of 50 parts for each 50 parts of a respective one of the last five TEA/monomer component A solutions through separate feed lines to the packer at field temperatures of about 10° (50° F.), the grout mixtures A and B give approximately 30-second gel times.

Turning to `C=CC(=O)NCNC(=O)C=C` [MBA, N,N'-methylenebisacrylamide], in the data set on albino rats [1], the “monomer toxicity (factor relative to acrylamide)” value was 1/2. Besides, the “amount of crosslinker above which it tends to precipitate” value in data set [2] is “about 4 % by weight”. Further, the LD50 in the data set on albino rats [3] is 390 mg/kg. In data set [4] (at dose schedules and conditions employed (MRI Project No. 4308-N, page 287)), the neurotoxicity entry was “not neurotoxic”.

On to `C=CC(N)=O` [acrylamide], for which, in data set [4] (in vivo), the “neurotoxicity (general statement)” value is “a neurotoxic chemical”.

With `C=CC(=O)O` [calcium acrylate (CaA), calcium acrylate], the “compressive strength of stabilized soil” value in data set [5] is on record as “up to 600 psi”. For the same compound, the “gel time (in words)” value in data set [6] is on record as “long gel time”.
